Reference: publication PMC5428058, “Local delivery of novel MRTF/SRF inhibitors prevents scar tissue formation in a preclinical model of fibrosis” (Scientific Reports, 2017)

Experiments:
[1] = test system: New Zealand white rabbits; assay: rabbit glaucoma filtration surgery model of scar tissue formation, clinical end-points; type: in vivo; conditions: for increase in IOP survival: 100 μM subconjunctival, IOP remains below baseline; for increase in long-term success of surgery (bleb survival) compared to vehicle control: 100 μl of 100 μM subconjunctival, day 30; for mean day of bleb failure: CCG compounds 100 μM subconjunctival, MMC 0.2 mg/ml intraoperative, vehicle 14 days; for intraocular pressure (IOP): versus vehicle control or baseline
Description: 24 female New Zealand white rabbits (2–2.4 kg, 12—14 weeks, Highgate, UK) underwent experimental glaucoma filtration surgery to the left eye under general anaesthesia, [28]. A superonasal fornix-based conjunctival flap was raised behind the limbus and a micro-vitreoretinal blade (20 gauge, 0.90 mm, Surgistar USA) was used to make a partial thickness scleral tunnel to the corneal stroma. A 22 gauge, 25 mm intravenous cannula was passed through the tunnel and the needle was removed once it was visible in the cornea. The cannula was advanced into the mid-pupillary area, trimmed at its scleral edge and fixed to the scleral surface using a 10–0 nylon suture (Alcon, USA). The conjunctival incision was closed using two interrupted 10–0 nylon sutures. In a randomised, prospective, single-masked observer study, the rabbits received either intraoperative 0.2 mg/ml mitomycin-C (MMC) [N = 6], or postoperative subconjunctival injections (100 μl) of 100 μM CCG-203971 [N = 6] or 100 μM CCG-222740 [N = 6] or vehicle control [N = 6] daily for the first nine days followed by twice weekly for three weeks, [33]. CCG-222740 and CCG-203971 were dissolved in 100% DMSO (Sigma, UK) at 10 mM and then diluted to 100 μM with sterile PBS. The same volume of DMSO was diluted with PBS for the vehicle control. For the MMC-treated group, a small corneal light shield sponge was soaked in 1 ml of 0.2 mg/ml MMC and applied over the conjunctiva for 3 minutes, and the area was then thoroughly washed with 50 ml of physiologic balanced salt solution (Alcon Laboratories, Inc., Fort Worth, TX). All the postoperative subconjunctival injections were given at the same site by a single-masked researcher.
The animals were evaluated twice weekly by a single-masked researcher. Bleb width and length were measured using calipers and intraocular pressures (IOP) were measured using a tonovet (Icare). The primary efficacy end-point was bleb survival as this is indicative of the long-term opening of the filtration pathway created during surgery. Bleb failure was defined as the appearance of a flat, scarred, and vascularised bleb associated with a deep anterior chamber. IOP survival, defined as when the intraocular pressure remains below the baseline IOP measurement, and bleb area were used as secondary end-points. Conjunctival vascularity was graded on a scale of 0 to 3 (0: avascular, 1: normal, 2: hyperaemic, 3: very hyperaemic).

[2] = test system: αSMA-positive human conjunctival fibroblasts; assay: alpha smooth muscle actin staining; type: cell-based; conditions: 48 hours, control 24.5%
Procedure: Human conjunctival fibroblasts were plated on 20 mm glass coverslips at 1 × 10^5 cells/well in 6-well plates (Falcon, Fisher Scientific). The next day, the fibroblasts were treated for 48 hours with 10 or 25 μM of CCG-222740 or CCG-203971 or 0.1% DMSO control in DMEM +10% FCS. The samples were fixed in 4% paraformaldehyde for 10 minutes, washed three times in PBS, and permeabilised in PBS 0.2% TX-100 (Triton X-100, Sigma) for 20 minutes. The samples were blocked with 5% fetal calf serum/5% bovine serum albumin (Sigma) for 1 hour. The samples were incubated overnight with the Cy3-labelled alpha smooth muscle actin antibody (1:1000, Sigma) in a wet chamber at 4 °C in the dark. The next day, the samples were washed twice in PBS 0.1% TX-100 and incubated with phalloidin (1:200) and DAPI (1:2000) for 1 hour at room temperature. The samples were then mounted on slides and imaged using an Upright780 Zeiss LSM confocal microscope. The proportion of fibroblasts with prominent αSMA-positive stress fibres was quantified visually from three random fields of view per treatment group in 3 independent experiments.

[3] = drug levels in aqueous, vitreous and serum by LC/MS; type: in vivo; conditions: rabbit, day 30, 48 hours after the last subconjunctival dose
Procedure: All animals were carefully evaluated for any signs of ocular or systemic toxicity during the study. At day 30, 100 µl of aqueous, 1 ml of vitreous, and 1 ml of venous blood were sampled on the rabbit eyes receiving CCG-222740 or CCG-203971 or vehicle control. The venous blood samples were left to clot for 30 minutes at room temperature, spun at 4000 rpm for 15 minutes at 4 °C, and the serum was collected as the supernatant. Samples were extracted in acetonitrile and the levels of CCG-222740 and CCG-203971 were measured in the aqueous, vitreous, and serum using liquid chromatography/mass spectrometry (LC/MS) in the Metabolomics Core at Michigan State University (East Lansing, MI).

[4] = test system: rabbit conjunctival tissue; assay: histologic analysis of bleb tissue after glaucoma filtration surgery; type: in vivo; conditions: for expression of αSMA by cells in tissue sections / scar tissue formation (picrosirius red) compared to vehicle control: day 30; for newly laid extracellular matrix and collagen (Gomori's trichrome): day 30, vehicle versus treated
Procedure: We further evaluated the histologic differences after local delivery of CCG-222740 and CCG-203971. The white filtration tube was used as landmark and the plane of sectioning of the bleb area was performed 2 mm from the tube (black line in Fig. 5). Grading was performed using a modified system originally described by Shah et al.[34]. The left operated eyes were compared to the right non-operated eyes that were used as controls for the appearance of normal conjunctival tissue. The sections were graded using a scale of −4 to +4 (0 = same as control eye; 1 = 1–25% difference from control eye; 2 = 26–50% difference from control eye; 3 = 51–75% difference from control eye; 4 = >75% difference from control eye; prefix+, more than; prefix−, less than). Analysis was performed using the mean results in each treatment group.
The animals were sacrificed on day 30 and both eyes were enucleated. The eyes were fixed in formalin, embedded in paraffin, and sequential 4 μm tissue sections were cut.
The sections were stained with hematoxylin and eosin (for cellularity and inflammatory cells), Gomori’s trichrome (for collagen), picrosirius red (for degree of fibrosis and collagen deposition), and alpha-smooth muscle actin (αSMA) using a primary monoclonal mouse anti-human αSMA antibody (Clone 1A4; Dako, High Wycombe, UK) and a biotinylated secondary antibody (rabbit anti-mouse; Dako). All the left operated eyes were compared to the right non-operated eyes that were used as controls for the appearance of normal conjunctival tissue. The sections were graded using a modified grading system originally described by Shah et al.[34], with a scale of −4 to +4 according to the staining intensity. Grades were defined as 0 = same as control eye; 1 = 1–25% difference from control eye; 2 = 26–50% difference from control eye; 3 = 51–75% difference from control eye; 4 = >75% difference from control eye (prefix+, more than; prefix −, less than).

| Compound | bleb area compared to vehicle control [1] | increase in IOP survival [1] [%] | increase in long-term success of surgery (bleb survival) compared to vehicle control [1] [%] | mean day of bleb failure [1] [days] | intraocular pressure (IOP) [1] | percentage of αSMA-positive fibroblasts ([2]; 10 μM) [%] | percentage of αSMA-positive fibroblasts ([2]; 25 μM) [%] | drug level in aqueous [3] | drug level in serum [3] | drug level in vitreous [3] | expression of αSMA by cells in tissue sections [4] | scar tissue formation (picrosirius red) compared to vehicle control [4] | newly laid extracellular matrix and collagen (Gomori's trichrome) [4] |
| --- | --- | --- | --- | --- | --- | --- | --- | --- | --- | --- | --- | --- | --- |
| O=C(Nc1ccc(Cl)cc1)C1CN(C(=O)c2cccc(-c3ccco3)c2)CC(F)(F)C1 (centres unmarked) [CCG-222740] | significantly larger bleb area | 67 | 67 | 28.5 | remained consistently lower than baseline measurements | 9.0 | 2.2 | below 20 nM | below 20 nM | below 20 nM | significantly decreased the expression of αSMA | significant decrease in scar tissue formation | present to a greater degree in the vehicle-treated group compared to |
| O=C(Nc1ccc(Cl)cc1)C1CCCN(C(=O)c2cccc(-c3ccco3)c2)C1 (centres unmarked) [CCG-203971] | no statistically significant differences | 33 | 33 | 22.5 | remained consistently lower than baseline measurements | 17.0 | 8.6 | below 20 nM | below 20 nM | below 20 nM | significantly decreased the expression of αSMA | significant decrease in scar tissue formation | present to a greater degree in the vehicle-treated group compared to |
